From patent EP0252380B1, “Antibiotic LL-E19020 alpha and beta” (AMERICAN CYANAMID COMPANY, priority 1986, dated 1988)
Converted amounts (≈) assume the structure as drawn.

Experiments:
[1] = test system: Clostridium difficile; experiment: In vitro antibacterial activity, standard agar dilution method (Table II); assay type: cell-based; conditions: strain ATCC 17858
[2] = test system: Pasteurella multocida 31081B; experiment: Pasteurella disk test (primary in vitro disk diffusion test); conditions: disks soaked in 2.5 mg/ml solution; strain 31081B
[3] = test system: Streptococcus pyogenes; experiment: Minimum inhibitory concentration by agar dilution (Table VI); assay type: cell-based; conditions: 2 strains tested
[4] = test system: In Vitro Rumen Fermentation; experiment: Propionate enhancement activity during in vitro rumen fermentation; assay type: cell-based, steer; conditions: for A:P: acetate/propionate ratio
Experimental: The drugs are dissolved or suspended (sonified if necessary) in a 0.1% Tween 20-ethanol-water vehicle and 25-50 ul is added to the incubation. The reaction is terminated with 6N HCl and centrifuged at 20,000 x g. Alliquots of the superinatant are analyzed for volatile fatty acid (VFA) content by gas-liquid chromatography.

[5] = test system: Escherichia coli; experiment: In vitro antibacterial activity, standard agar dilution method (Table II); assay type: cell-based; conditions: strain 311
[6] = test system: Mycoplasma gallisepticum "R"; experiment: Minimum inhibitory concentration assay for Mycoplasma gallisepticum (microdilution, Table VII); conditions: microdilution; "R" strain
[7] = test system: Treponema hyodysenteriae; experiment: T. hyodysenteriae disk test (primary in vitro disk diffusion test); conditions: disks soaked in 2.5 mg/ml solution; strain B204 (ATCC 31212); zones of inhibited hemolysis
[8] = test system: Streptococcus faecalis; experiment: Minimum inhibitory concentration by agar dilution (Table VI); assay type: cell-based; conditions: 1 strain tested
[9] = test system: Caenorhabditis elegans; experiment: Control of the free living nematode Caenorhabditis elegans (motility rating); assay type: cell-based; design: key: 9 = worms immobile or dead within 4 hours post immersion in microfilter test solution; 8 = no motility; 7 = markedly reduced motility in approximately 95% of worms; 6 = reduced motility; 5 = slightly reduced motility; 0 = normal motility, same as controls; conditions: 150 ppm; motility of adults and larvae
Description: Culture Maintenance: Cultures of C. elegans (Bristol strain from J. Lewis) are maintained on E. coli lawns on NG Agar Plates at 20 C. New cultures are established weekly. Nematodes for testing are washed from 4-5 day old cultures using Fresh Ascaris ringers Solution (FARS). The worms are further washed with FARS, containing gentamycin, to reduce bacterial contamination and centrifuged to separate worms from wash solution. This procedure is repeated three times. The washed worms are than added to C. briggsae Maintenance Medium (CbMM), from GIBCO^a to which is added gentamycin (600 units/ml) and mycostatin (0.5 mg.ml). ^aGIBCO Laboratories, 3175 Staley Road, Grand Island, N.Y. 14027, USA Compounds are dissolved in acetone and made up to volume with equal parts of water. The final test concentration of each compound in the mixture is 150 ppm. The test material is micropipetted (25 ul) into a single well of a 96-well sterile tissue culture plate (COSTAR)^b and the solvent allowed to evaporate. These "treated" plates are used immediately or stored in a freezer without apparent adverse effects on the compounds. ^b205 Broadway, Cambridge, MA 02139, USA […] […] Immediately prior to reading the plate, it is gently tapped to stimulate the movement of the worms. Activity is judged subjectively, but semi-quantitatively, based on the drug effects on motility of the adults and larvae. […]

[10] = test system: Staphylococcus saprophyticus; experiment: In vitro antibacterial activity, standard agar dilution method (Table II); assay type: cell-based; conditions: strain VHG-84-50
[11] = test system: Staphylococcus epidermidis; experiment: as above; assay type: cell-based; conditions: strain IO-83-58
[12] = test system: Bordetella bronchiseptica; experiment: Minimum inhibitory concentration by agar dilution (Table VI); assay type: cell-based; conditions: 4 strains tested
[13] = test system: Streptococcus pneumoniae; experiment: In vitro antibacterial activity, standard agar dilution method (Table II); assay type: cell-based
[14] = test system: Pasteurella multocida; experiment: Minimum inhibitory concentration by agar dilution (Table VI); assay type: cell-based; conditions: 6 strains tested
[15] = test system: Streptococcus uberis; experiment: as above; assay type: cell-based; conditions: 1 strain tested
[16] = test system: Trichostrongylus colubriformis; experiment: Trichostrongylus colubriformis/gerbil anthelmintic evaluation; assay type: in vivo, Gerbils
Experimental: Gerbils are infected with 400 infective larvae of the sheep parasite, T. colubriformis on a day 0. On day 7 gerbils are divided into test and untreated control groups of 2-3 animals. Drug is administered in the feed and are fed from day 7-11. Drugs may also be given by gavage (single oral dose) or injected subcutaneously. Single doses are usually administered on day 7. Gerbils are killed on day 11 and small intestines removed. The number of T. colubriformis remaining in the intestines of treated animals are counted and compared to the number remaining in the untreated controls.

[17] = test system: Enterococcus; experiment: In vitro antibacterial activity, standard agar dilution method (Table II); assay type: cell-based
[18] = test system: Enterobacter cloacae; experiment: as above; assay type: cell-based; conditions: strain VGH-84-37
[19] = test system: Pasteurella haemolytica 30660; experiment: Pasteurella disk test (primary in vitro disk diffusion test); assay type: cell-based; conditions: disks soaked in 2.5 mg/ml solution; strain 30660
[20] = test system: Treponema hyodysenteriae; experiment: Minimum inhibitory concentration by microdilution (Table VII); assay type: cell-based
[21] = test system: Peptococcus magnus; experiment: In vitro antibacterial activity, standard agar dilution method (Table II); assay type: cell-based

SMILES: C/C=C/C=C/[C@@H]1O[C@](O)([C@H](CO[C@H]2C[C@H](OC)[C@H](O[C@@H]3C[C@H](OC)[C@@H](O[C@H]4C[C@H](OC)[C@H](O)[C@H](C)O4)[C@H](C)O3)[C@H](C)O2)C(=O)NC/C=C/C=C(\C)[C@H](OC)[C@@H](C)[C@@H]2C[C@H](O)[C@@H](/C=C/C=C/C=C\C(=O)O)O2)[C@@H](O)[C@H](OC(=O)Cc2ccccc2)C1(C)C [LL-E19020 beta]
- Minimal Inhibitory Concentration [1]: 1 µg/mL
- ZONE SIZE [2]: 13 mm
- MIC [3]: 2 to 4 µg/mL
- A:P ([4]; Table X, 0.008 PPM, control 2.65): 2.63
- TOTAL VFA ([4]; Table X, 0.008 PPM, control 159.4): 161.2 mM
- A:P ([4]; Table X, 0.031 PPM, control 2.65): 2.44
- TOTAL VFA ([4]; Table X, 0.031 PPM, control 159.4): 161.1 mM
- A:P ([4]; Table X, 0.125 PPM, control 2.65): 2.19
- TOTAL VFA ([4]; Table X, 0.125 PPM, control 159.4): 161.6 mM
- A:P ([4]; Table X, 0.500 PPM, control 2.65): 2.15
- TOTAL VFA ([4]; Table X, 0.500 PPM, control 159.4): 156.7 mM
- A:P ([4]; Table X, 2.000 PPM, control 2.65): 2.18
- TOTAL VFA ([4]; Table X, 2.000 PPM, control 159.4): 153.8 mM
- A:P ([4]; Table XI, 0.015 PPM, control 2.19): 2.03
- TOTAL VFA ([4]; Table XI, 0.015 PPM, control 125.3): 127.2 mM
- A:P ([4]; Table XI, 0.031 PPM, control 2.19): 1.98
- TOTAL VFA ([4]; Table XI, 0.031 PPM, control 125.3): 125.7 mM
- A:P ([4]; Table XI, 0.062 PPM, control 2.19): 1.96
- TOTAL VFA ([4]; Table XI, 0.062 PPM, control 125.3): 123.7 mM
- A:P ([4]; Table XI, 0.125 PPM, control 2.19): 1.92
- TOTAL VFA ([4]; Table XI, 0.125 PPM, control 125.3): 124.3 mM
- A:P ([4]; Table XI, 0.250 PPM, control 2.19): 1.93
- TOTAL VFA ([4]; Table XI, 0.250 PPM, control 125.3): 122.6 mM
- Minimal Inhibitory Concentration [5]: >128 µg/mL
- MIC [6]: 0.125 µg/mL (≈ 0.102 µM)
- ZONE SIZE [7]: 11 mm
- MIC [8]: 8 µg/mL (≈ 6.52 µM)
- Rating [9]: 9 (immobile or dead)
- Minimal Inhibitory Concentration [10]: > 128 µg/mL
- Minimal Inhibitory Concentration [11]: > 128 µg/mL
- MIC [12]: > 256 µg/mL
- Minimal Inhibitory Concentration ([13]; strain K-84-21): 0.5 µg/mL
- Minimal Inhibitory Concentration ([13]; strain SVI): 1 µg/mL
- Minimal Inhibitory Concentration ([13]; strain VGH-84-56): 0.5 µg/mL
- Minimal Inhibitory Concentration ([13]; strain VGH-84-57): 1 µg/mL
- Minimal Inhibitory Concentration ([13]; strain VGH-84-58): 0.25 µg/mL
- Minimal Inhibitory Concentration ([13]; strain VGH-84-59): 0.25 µg/mL
- MIC [14]: 8 to 16 µg/mL
- MIC [15]: 4 µg/mL (≈ 3.26 µM)
- % Worms Removed ([16]; 5 m/kg single oral dose): 19%
- % Worms Removed ([16]; 62.5 ppm diet, fed day 7-11): 32%
- % Worms Removed ([16]; 150 ppm diet, fed day 7-11): 86%
- % Worms Removed ([16]; 250 ppm diet, fed day 7-11): 100%
- Minimal Inhibitory Concentration ([17]; strain CMC-83-72): >128 µg/mL
- Minimal Inhibitory Concentration ([17]; strain IO-83-28): >128 µg/mL
- Minimal Inhibitory Concentration ([17]; strain IO-83-40): >128 µg/mL
- Minimal Inhibitory Concentration ([17]; strain VGH-84-65): >128 µg/mL
- Minimal Inhibitory Concentration ([17]; strain VGH-84-68): >128 µg/mL
- Minimal Inhibitory Concentration [18]: >128 µg/mL
- ZONE SIZE [19]: 13 mm
- MIC ([20]; strain B78 (ATCC 27164)): 1 µg/mL (≈ 0.815 µM)
- MIC ([20]; strain B204 (ATCC 31212)): 0.5 µg/mL (≈ 0.408 µM)
- Minimal Inhibitory Concentration ([21]; strain ATCC 14956): 0.5 µg/mL
- Minimal Inhibitory Concentration ([21]; strain ATCC 29328): 0.5 µg/mL
